Literature values, collected in patent US5326898A, “Substituted phenylethenyl compounds having retinoid-like biological activity” (Allergan, Inc., priority 1992, dated 1994).

Tested on: ornithine decarboxylase (ODC)
Settings: qualitative; background statement on retinoic acid

For CC1=C(/C=C/C(C)=C/C=C/C(C)=C/C(=O)O)C(C)(C)CCC1 [Retinoic acid], the “inhibition of induction of ODC activity by TPA” value is listed as “inhibits”.
